Among the data in patent US8802694B2, “3,6-diazabicyclo[3.1.1]heptanes as neuronal nicotinic acetycholine receptor ligands” (Targacept, Inc., priority 2009, dated 2014) are Ki values, retold here.

Like-named read-outs stand apart in the source and are kept apart here.

The target in one assay is T1, α6β3β4α5 (Homo sapiens, UniProt P30926+Q15825).
T1 construct: host or cells: SH-EP1
Kind of assay: Competition binding to α6β3β4α5 receptors in membranes of SH-EP1/α6β3β4α5 cells ([3H]-epibatidine). As to conditions: membrane competition binding.

The next assay has as its target T2, Human α4β2 (Homo sapiens, UniProt P17787+P43681).
T2 construct: host or cells: SH-EP1
In words: Competition binding to human α4β2 receptors in membranes of SH-EP1/human α4β2 cells ([3H]-nicotine).

The next assay deals with T3, Rat α4β2 (Rattus norvegicus, UniProt P09483+P12390).
T3 construct: Rat cortices were obtained from Analytical Biological Services; tissue Analytical Biological Services, Incorporated (ABS, Wilmington, Del.); host or cells: rat cortex (female Sprague-Dawley)
In words: Competition binding to rat α4β2 receptors in rat cortical membranes. How it is done: Preparation of membranes from rat tissues. Rat cortices were obtained from Analytical Biological Services, Incorporated (ABS, Wilmington, Del.). Tissues were dissected from female Sprague-Dawley rats, frozen and shipped on dry ice. Tissues were stored at −20° C. until needed for membrane preparation. […] The resulting homogenate was centrifuged at 40,000 g for 20 minutes at 4° C. and the resulting pellet was resuspended in 20 volumes of ice-cold water. After 60-minute incubation at 4° C., a new pellet was collected by centrifugation at 40,000 g for 20 minutes at 4° C. The final pellet was resuspended in preparative buffer and stored at −20° C. On the day of the assay, tissue was thawed, centrifuged at 40,000 g for 20 minutes and then resuspended in PBS (Dulbecco's Phosphate Buffered Saline, Life Technologies, pH 7.4) to a final concentration of 2-3 mg protein/mL. Protein concentrations were determined using the Pierce BCA Protein Assay kit (Pierce Biotechnology, Rockford, Ill.), with bovine serum albumin as the standard.
Competition binding to receptors in membrane preparations. […] In brief, membranes were reconstituted from frozen stocks (approximately 0.2 mg protein) and incubated for 2 h on ice in […] assay buffer (PBS) in the presence of competitor compound (0.001 nM to […]) and radioligand. [^3H]-nicotine (L-(−)-[N-methyl-3H]-nicotine, 69.5 Ci/mmol, Perkin-Elmer Life Sciences) was used for human α4β2 binding studies. [^3H]-epibatidine (52 Ci/mmol, Perkin-Elmer Life Sciences) was used for binding studies at the other receptor subtypes. […] Filters were washed 3 times and the radioactivity retained was determined by liquid scintillation counting.
Binding data analysis. Binding data were expressed as percent total control binding. Replicates for each point were averaged and plotted against the log of drug concentration.

The mark [1] stands for this setting: membrane competition binding, read-out: Human α4β2 Ki.
Setting [2] is: rat cortex membranes, read-out: Rat α4β2 Ki.
The mark [3] stands for this setting: Human α4β2 Ki, membrane competition binding.
The mark [4] stands for this setting: Rat α4β2 Ki, rat cortex membranes.

For orientation: Ki means the equilibrium dissociation constant of an inhibitor or competing ligand from its target. For the compound `O=C([C@@H]1C[C@@H]2C=C[C@H]1C2)N1CC2CC(C1)N2`, the Ki was found to be 1300 nM at α6β3β4α5 (read-out: α6β3β4α5 Ki), 160 nM at Human α4β2 (setting [1]) and 210 nM on Rat α4β2 (setting [2]).

In the case of `C[C@H]1C[C@H]1C(=O)N1C2CNCC1C2`, the inhibition constant (Ki) stood at 1800 nM at α6β3β4α5 (read-out: α6β3β4α5 Ki), 9.6 nM at Human α4β2 (setting [3]) and 180 nM at Rat α4β2 (setting [2]).

With `C[C@H]1C[C@@H]1C(=O)N1CC2CC(C1)N2` [drawing 157], the Ki on α6β3β4α5 (α6β3β4α5 Ki) turned out to be 2600 nM; on Human α4β2 (setting [3]), 7.6 nM; on Rat α4β2 (setting [4]), 100 nM.

Regarding `O=C([C@H]1C[C@@H]1F)N1CC2CC(C1)N2` [drawing 165], the Ki on α6β3β4α5 (α6β3β4α5 Ki) was 780 nM; on Human α4β2 (setting [3]), 4.6 nM; on Rat α4β2 (setting [4]), 1.6 nM.

As to `O=C([C@H]1C[C@H]1F)N1CC2CC(C1)N2` [drawing 163], the Ki was found to be 150 nM on α6β3β4α5 (α6β3β4α5 Ki), 1.1 nM at Human α4β2 (setting [1]) and 0.53 nM on Rat α4β2 (setting [4]).

In the case of `O=C(NCc1ccccc1)N1CC2CC(C1)N2`, the Ki on α6β3β4α5 (read-out: α6β3β4α5 Ki) was found to be 400 nM; on Human α4β2 (setting [1]) it was 270 nM; at Rat α4β2 (setting [2]), 200 nM.

Take `C[C@H]1C[C@@H]1C(=O)N1CC2CC(C1)N2` [drawing 170]: the Ki on α6β3β4α5 (α6β3β4α5 Ki) is 1700 nM; at Human α4β2 (setting [3]), 13 nM; on Rat α4β2 (setting [4]), 4.8 nM.

Consider `O=C(c1occc1Cl)N1CC2CC(C1)N2` [3-(3-chlorofuran-2-yl)carbonyl-3,6-diazabicyclo[3.1.1]heptane], for which the Ki on α6β3β4α5 (read-out: α6β3β4α5 Ki) worked out at 2400 nM; at Human α4β2 (read-out: Human α4β2 Ki, membrane competition binding), 7.9 nM; at Rat α4β2 (read-out: Rat α4β2 Ki, rat cortex membranes), 56 nM.

For `CC1(C)CC1C(=O)N1CC2CC(C1)N2` (stereo not drawn), the Ki was 120 nM at α6β3β4α5 (α6β3β4α5 Ki), 5.3 nM at Human α4β2 (setting [3]) and 6.7 nM at Rat α4β2 (setting [4]).

As to `O=C(NCc1ccc(Cl)cc1Cl)N1CC2CC(C1)N2`, the inhibitory constant (Ki) on α6β3β4α5 (α6β3β4α5 Ki) was determined as 38 nM; at Human α4β2 (setting [3]) it was 48 nM; at Rat α4β2 (setting [4]), 24 nM.

For `O=C(CC1CC1)N1C2CNCC1C2`, the Ki on α6β3β4α5 (read-out: α6β3β4α5 Ki) was determined as 310 nM; at Human α4β2 (setting [3]), 43 nM; on Rat α4β2 (setting [4]), 27 nM.

As for `[2H]C1([2H])C([2H])([2H])C1([2H])C(=O)N1CC2CC(C1)N2`, the inhibition constant (Ki) at α6β3β4α5 (α6β3β4α5 Ki) is 120 nM; on Human α4β2 (setting [3]), 0.49 nM; on Rat α4β2 (setting [4]), 0.24 nM.

As for `C/C=C/CCC(=O)N1CC2CC(C1)N2`, the inhibition constant (Ki) on α6β3β4α5 (read-out: α6β3β4α5 Ki) was found to be 540 nM; on Human α4β2 (setting [3]), 37 nM; on Rat α4β2 (setting [4]), 25 nM.

For the compound `O=C([C@H]1C[C@@H]1F)N1CC2CC(C1)N2` [drawing 111], the Ki on α6β3β4α5 (α6β3β4α5 Ki) is 120 nM; at Human α4β2 (setting [3]), 4.5 nM; at Rat α4β2 (setting [4]) it was 0.81 nM.

As to `O=C(C1CC2C=CC1C2)N1C2CNCC1C2` (stereo not drawn), the Ki on α6β3β4α5 (read-out: α6β3β4α5 Ki) came out at 900 nM; at Human α4β2 (setting [1]), 200 nM; on Rat α4β2 (setting [2]), 380 nM.
